Converted amounts (≈) assume the structure as drawn. Starred links: 1 amine or outer side, 2 acyl side, 3 side chain; linkers in the order of their positions; H or OH if unused. Non-standard residues stand in square brackets, D forms with d. Residues, ends and D or L forms follow the SMILES beside them. *: point of attachment. X1 = O=C([C@@H]1CSC([C@H](Cc2ccccc2)N[*:1])=N1)[*:2]; Allyl(1,1-Me2) = C=CC(C)(C)*
Key:
[1] = test system: P-388 (suspension culture of a lymphoid neoplasm from DBA-2 mouse)
Protocol: (§1) Cells were maintained in logarithmic phase of growth in Eagle's Minimum Essential Medium, with Earle's Balanced Salts, with 2.0 mM L-glutamine, with non-essential amino acids, without sodium bicarbonate (EMEM/neaa); supplemented with 10% Fetal Calf Serum (FCS), 10^−2 M sodium bicarbonate and 0.1 g/l penicillin-G+streptomycin sulfate.
A simple screening procedure was carried out to determine and compare the antitumor activity of this compound, using an adapted form of the method described by Bergeron et al. [Biochem. Bioph. […] The antitumor cells employed were P-388 (suspension culture of a lymphoid neoplasm from DBA-2 mouse), A-549 (monolayer culture of a human lung carcinoma), HT-29 (monolayer culture of a human colon carcinoma) and MEL-28 (monolayer culture of a human melanoma).
P-388 cells were seeded into 16 mm wells at 1×10^4 cells per well in 1 ml aliquots of MEM 5FCS containing the indicated concentration of drug. A separate set of cultures without drug was seeded as control growth to ensure that cells remained in exponential phase of growth. All determinations were carried out in duplicate. After three days of incubation at 37° C., 10% CO2 in a 98% humid atmosphere, an approximate IC50 was determined by comparing the growth in wells with drug to the growth in wells control.

[2] = test system: A-549 (monolayer culture of a human lung carcinoma)
Protocol: as §1
(§2) The antitumor cells employed were P-388 (suspension culture of a lymphoid neoplasm from DBA-2 mouse), A-549 (monolayer culture of a human lung carcinoma), HT-29 (monolayer culture of a human colon carcinoma) and MEL-28 (monolayer culture of a human melanoma).
(§3) A-549, HT-29 and MEL-28 cells were seeded into 16 mm wells at 2×10^4 cells per well in 1 ml aliquots of MEM 10FCS containing the indicated concentration of drug. A separate set of cultures without drug was seeded as control growth to ensure that cells remained in exponential phase of growth. All determinations were carried in duplicate. After three days of incubation at 37° C., 10% CO2 in a 98% humid atmosphere, the wells were stained with 0.1% Crystal Violet. An approximate IC50 was determined by comparing the growth in wells with drug to the growth in wells control.

[3] = test system: HT-29 (monolayer culture of a human colon carcinoma)
Protocol: as §1, §2, §3

[4] = test system: MEL-28 (monolayer culture of a human melanoma)
Protocol: as §1, §2, §3

IC50 P-388 [1]: 0.5 µg/mL (≈ 0.597 µM)
IC50 A-549 [2]: 0.5 µg/mL (≈ 0.597 µM)
IC50 HT-29 [3]: 0.5 µg/mL (≈ 0.597 µM)
IC50 MEL-28 [4]: 1.0 µg/mL (≈ 1.19 µM)
SMILES: C=CC(C)(C)OC[C@@H]1NC(=O)[C@H]([C@@H](C)OC(C)(C)C=C)NC(=O)[C@@H]2CSC(=N2)[C@H](Cc2ccccc2)NC(=O)[C@@H]2CCCN2C(=O)[C@H](C)NC(=O)[C@H]([C@@H](C)CC)NC1=O [trunkamide A] (cyclo(AP[X1]T(Allyl(1,1-Me2))S(Allyl(1,1-Me2))I))
